Results as given in patent publication US7772260B2, “Imidazo[2,1-b]-1,3,4-thiadiazole sulfonamides” (Aegera Therapeutics Inc., priority 2001, dated 2010).
“Also recorded” adds a separate entry of the source.

What was measured:
SCG neurons [1] = test: cells; assay type: cell-based, Sprague Dawley rats; settings: for IC50: Rattus norvegicus, Neuron
sciatic nerve = test: Sciatic nerve crush injury model; assay type: in vivo, Sprague Dawley rats
Description: The sciatic nerve crush model is a representative model of axonal repair and regeneration. The sciatic nerve is physically crushed with forceps at the mid-thigh; only the right leg is injured, the left leg serving as a control. The axons die from the crush point to their point of innervation. Functional loss of the axons is rapidly observed as the animals drag their right leg and the toes of the right leg no longer spread. Recovery is observed in approximately 28 days as the animals regain use of their right leg. More quantitative measurements of recovery include toe spread measurements between the digits 1 and 5 and digits 2 and 4, gait analysis and electrical conductivity from the toes to the injury site (see Example 161). Male Sprague Dawley rats were anaesthetized (halothane and buprenorphine) and the right hind leg was blunt dissected to expose the sciatic nerve at mid-thigh. The nerve was crushed twice for a total of 30 seconds using No.7 Dumont jeweller's forceps. The incision is sutured and the animals are allowed to recover for 28 days. Functional recovery was measured by gait, nerve conductance and toe spread measurements between digits 1 and 5 and digits 2 and 4.

SCG neurons [2] = test: cells; settings: Rattus norvegicus, Neuron, 48 h, read-out: IC50, protection of SCG neurons against cisplatin killing
[3] = Acute toxicity studies with compound 1 alone; assay type: in vivo; settings: compound alone, 1, 5, and 10 mg/kg for 3 weeks
Description: Male Spraugue Dawley rats were treated with 50% HPDC vehicle (veh/veh), compound I dissolved in 50% HPDC at 1, 5, or 10 mg/kg (veh/1, veh/5, veh/10, respectively), or Taxol™ (9 mg/kg)+compound 1 dissolved in 50% HPDC at 1, 5, and 10 mg/kg (Tax/1, Tax/5, Tax/10) according to the dosing regime described in Example 160. Weight measurements were made ever other day.

SCG neurons [4] = test: In vitro protection of SCG neurons from vincristine killing; assay type: cell-based, Sprague Dawley rats; settings: Rattus norvegicus, Neuron; vincristine (50 ng/mL), 48 hours, MTS; ±1 μM; read-out: IC50, protection of SCG neurons against Vincristine killing
Description: Similarly, vincristine and vinblastine are commonly used anti-tumour agents whose mode of action involve tubulin binding.

[5] = test system: human ovarian carcinoma cells (OV2008); test: Co-treatment of OV2008 cell line with Taxol and compound 1; assay type: cell-based; settings: Taxol™ (50 nM) + compound at 5, 10, 20 uM; Taxol™ and/or cisplatin
Description: (§1) H460 and OV2008 cells were plated and incubated for 48 hours. Compound 1 and/or compound 1 and Taxol™ were added. Viability was determined after 24 hours, staining with MTT (Promega).
(§2) FIG. 3 illustrates the co-treatment of H460 and OV 2008 cell lines with Taxol™ and compound 1. H460 lung carcinoma and OV2008 ovarian carcinoma cells were treated with Taxol™ (50 nM) and/or Taxol™ (50 nM)+compound 1 (noted as AEG 03482) at levels of 5, 10, and 20 uM.

[6] = test system: human lung carcinoma cells (H460); test: Co-treatment of H460 cell line with Taxol and compound 1; assay type: cell-based; settings: Taxol™ (50 nM) + compound at 5, 10, 20 uM; Taxol™ and/or cisplatin
Description: as §1, §2

CA II = CA II (Homo sapiens, UniProt P00918); test: CA II inhibition; assay type: biochemical; settings: read-out: CAII(50)
Description: CA II inhabition was measured using the protocol described by Pocker, Y.'Stone, J. Biochemistry 1967, 6, 668.

SCG neurons [7] = test: Protection of SCG neurons from anti-NGF killing; assay type: cell-based, Sprague Dawley rats; settings: Rattus norvegicus, Neuron; anti-NGF antibody, serum and NGF free 48 hours, Alamar Blue; +/−1 uM; read-out: IC(50), rescue from anti-NGF killing of SCG neurons
[8] = test system: retinal ganglion (RG) neurons; test: Optical stroke model; assay type: in vivo, rat
Description: Various diseases which result in loss of vision are related to increased inter-ocular pressure and ocular stroke or ischemia. Loss of the retinal ganglion (RG) occur during ischemic insult and in diseases such as diabetes and glaucoma. A model of inter-ocular ischemia involves an invasive increase in ocular pressure which results in the collapse of the central retinal artery. Retinal ischemia is confirmed by whitening of the iris and loss of red reflex. The inter-ocular pressure is normalized after 30 minutes. This procedure is performed on the right eye and the left eye serves as a control. Compound was given either by intra-vitrial injection or via SC injections at 10 mg/kg (see Example 162).
The right eye of each rat was dilated fully using 1% tropacamide and 2% pheylephrine hydrochloride (Alcon Canada). A single drop of 0.5% proparacaine (Alcon) was used as a topical anesthetic. The anterior chamber of the right eye was cannulated with a 30-gauge needle connected to a saline reservoir and a manometer to monitor intraocular pressure. Intraocular pressure was raised to 110 mm Hg by raising the saline reservoir for 60 minutes. This increase in pressure collapses the central retinal artery. […] Optical function after 24 hrs, 28 hrs and 7 days was assessed using ERG measurements and histological staining of the RG layer.

NS(=O)(=O)c1nn2cc(-c3ccccc3)nc2s1 [Compound 1, 6-Phenylimidazo[2,1-b]-1,3,4-thiadiazole-2-sulfonamide]
protection against Taxol™ induced killing (SCG neurons [1]; 10 uM, Taxol™ 50 ng/mL, MTS): 100% | IC50 (SCG neurons [1]; Taxol™ (50 ng/mL), viability 48 hours later, MTS, read-out: IC(50), protection of SCG neurons from Taxol killing): 7 µM | IC50 (SCG neurons [1]; read-out: IC(50) against Taxol killing of SCGs): 7 µM | functional recovery after sciatic nerve crush (sciatic nerve; 1 and 10 mg/kg): improved recovery | recovery in toe spread area (inner toe spread) (sciatic nerve; versus vehicle control): induced increased recovery | IC50 (SCG neurons [2]): 5 µM | acute signs of toxicity [3]: No acute signs of toxicity | IC50 (SCG neurons [4]): 10 µM | protection of OV2008 cells from Taxol™ induced apoptosis [5]: no protection; also recorded: did not protect | protection of H460 cells from Taxol™ induced apoptosis [6]: no protection; also recorded: did not protect | IC50 (CA II): 0.25 µM | IC50 (SCG neurons [7]): 22 µM | protection of RG population / ERG conductance after ocular stroke ([8]; given post stroke, intravitreally then daily injections for 1 week): protects the RG population allowing for normal conductance | histology of the RG layer ([8]; intra-vitrial injection or SC): healthy RG layers
